The test system of assay [1] is Activated human umbilical vein endothelial cells (HUVECs). Briefly: Inhibition of proliferation of activated HUVEC cells. The assay is classed as cell-based. Conditions: concentration required to inhibit proliferation by 50%, value falls within the range of concentrations given or >1000 nM.
Assay [2] relates to tubulin. Briefly: Tubulin polymerisation inhibitor (TPI) assay. The assay is classed as biochemical. The note with it: concentration required to inhibit the extent of tubulin polymerisation by 50%.

For orientation: IC50 means the concentration needed to halve the response being measured. Low readings indicate greater potency, high ones weaker potency.

“6-(3-amino-4-methoxyphenyl)-5-(3-hydroxy-4,5-dimethoxyphenyl)furo[2,3-d]pyrimidin-2(1H)-one hydrochloride [Example 10]”: the IC50 in assay [1] is greater than 1000 nM.

Turning to `COc1ccc(-c2oc3[nH]c(=O)ncc3c2-c2cc(OC)c(OC)c(OC)c2)cc1` [Example 1], the IC50 in assay [2] is 2000 nM; in assay [1] (Homo sapiens, HUVEC), 10 to 100 nM.

Regarding `COc1ccc(-c2c(-c3cc(OC)c(OC)c(OC)c3)oc3[nH]c(=O)ncc23)cc1` [Example 2, 6-(2-(3,4,5-trimethoxyphenyl))-5-(4-methoxyphenyl)furo[2,3-d]pyrimidin-2(1H)-one], the IC50 in assay [2] lay in the range of 4000 to 10000 nM; in assay [1] (Homo sapiens, HUVEC) it was 100 to 1000 nM.

In the case of `COc1cc(-c2c(-c3ccco3)oc3[nH]c(=O)ncc23)cc(OC)c1OC` [Example 3, 6-(2-furyl)-5-(3,4,5-trimethoxyphenyl)furo[2,3-d]pyrimidin-2(11)-one], the IC50 in assay [1] (Homo sapiens, HUVEC) was greater than 1000 nM.

For the compound `COc1cc(-c2c(-c3ccc4c(ccn4C)c3)oc3[nH]c(=O)ncc23)cc(OC)c1OC` [Example 4, 6-(1-Methyl-1H-indol-5-yl)-5-(3,4,5-trimethoxy-phenyl)-1H-furo[2,3-d]pyrimidin-2-one], the IC50 in assay [1] (Homo sapiens, HUVEC) was 1 to 10 nM.

The compound `COc1ccc(-c2oc3[nH]c(=O)ncc3c2-c2cc(OC)c(OC)c(OC)c2)cn1` [Example 5, 6-(6-methoxypyridin-3-yl)-5-(3,4,5-trimethoxyphenyl)furo[2,3-d]pyrimidin-2(1H)-one] came in with an IC50 in assay [1] (Homo sapiens, HUVEC) of 100 to 1000 nM.

In assay [1] (Homo sapiens, HUVEC), `COc1ccc(-c2oc3[nH]c(=O)ncc3c2-c2cc(OC)c(OC)c(OC)c2)cc1O` [Example 7, 6-(3-Hydroxy-4-methoxy-phenyl)-5-(3,4,5-trimethoxy-phenyl)-1H-furo[2,3-d]pyrimidinone] yielded an IC50 of 10 to 100 nM.

`COc1ccc(-c2oc3[nH]c(=O)ncc3c2-c2cc(OC)c(OC)c(OC)c2)c(O)c1O` [Example 8, 6-(2,3-Dihydroxy-4-methoxy-phenyl)-5-(3,4,5-trimethoxy-phenyl)-1H-furo[2,3-d]pyrimidin-2-one] registered a 50% inhibitory concentration (IC50) in assay [1] (Homo sapiens, HUVEC) greater than 1000 nM.

`COc1ccc(-c2oc3[nH]c(=O)ncc3c2C(=O)c2cc(OC)c(OC)c(OC)c2)cc1` [Example 13] registered a 50% inhibitory concentration (IC50) in assay [2] greater than 40000 nM.

In the case of `COc1ccc(-c2oc3c(cnc(=O)n3C)c2C(=O)c2cc(OC)c(OC)c(OC)c2)cc1` [Example 15], the IC50 in assay [2] is greater than 40000 nM.

In assay [2], `COc1ccc(-c2oc3nc(Cl)ncc3c2-c2cc(OC)c(OC)c(OC)c2)cc1` [Example 16, 2-Chloro-6-(4-methoxyphenyl)-5-(3,4,5-trimethoxy-phenyl)-furo[2,3-d]pyrimidine] yielded an IC50 of 10000 to 40000 nM.

In assay [2], `COc1ccc(-c2oc3nc(OC)ncc3c2-c2cc(OC)c(OC)c(OC)c2)cc1` [Example 17, 2-Methoxy-6-(4-methoxyphenyl)-5-(3,4,5-trimethoxyphenyl)-furo[2,3-d]pyrimidine] gave an IC50 greater than 40000 nM.

In assay [2], `COc1ccc(-c2sc3nc(SC)ncc3c2C(=O)c2cc(OC)c(OC)c(OC)c2)cc1` [Example 18, 2-Thiomethoxy-6-(4-methoxyphenyl)-5-(3,4,5-trimethoxybenzoyl)-thiopheno [2,3-d]pyrimidine] showed an IC50 greater than 40000 nM.

Regarding `COc1ccc(-c2sc3nc(OC)ncc3c2C(=O)c2cc(OC)c(OC)c(OC)c2)cc1` [Example 19, 2-Methoxy-6-(4-methoxyphenyl)-5-(3,4,5-trimethoxybenzoyl)-thiopheno[2,3-d]pyrimidine], the IC50 is greater than 40000 nM in assay [2] and greater than 1000 nM in assay [1] (Homo sapiens, HUVEC).

As to `COc1ccc(-c2oc3nc(OC)ccc3c2C(=O)c2cc(OC)c(OC)c(OC)c2)cc1` [Example 20, 6-methoxy-2-(4-methoxyphenyl)-3-(3,4,5-trimethoxybenzoyl)furo[2,3-b]pyridine], the IC50 in assay [2] was roughly 2000 nM; in assay [1] (Homo sapiens, HUVEC) it was 100 to 1000 nM.

Take `COc1ccc(-c2oc3nc(OC)ccc3c2-c2cc(OC)c(OC)c(OC)c2)cc1` [Example 21, 6-methoxy-2-(4-methoxyphenyl)-3-(3,4,5-trimethoxyphenyl)furo[2,3-b]pyridine]: the IC50 in assay [2] is greater than 40000 nM.

On to `COc1ccc(-c2oc3cc(OC)cnc3c2C(=O)c2cc(OC)c(OC)c(OC)c2)cc1` [Example 22, 6-methoxy-2-(4-methoxyphenyl)-3-(3,4,5-trimethoxybenzoyl)furo [3,2-b]pyridine], for which the IC50 in assay [2] was less than 4000 nM; in assay [1] (Homo sapiens, HUVEC), 100 to 1000 nM.

Take `COc1ccc(-c2oc3cc(OC)cnc3c2-c2cc(OC)c(OC)c(OC)c2)cc1` [Example 23, 6-methoxy-2-(4-methoxyphenyl)-3-(3,4,5-trimethoxyphenyl)furo[3,2-b]pyridine]: the IC50 in assay [2] was roughly 10000 nM; in assay [1] (Homo sapiens, HUVEC), greater than 1000 nM.

In the case of `COc1ccc(-c2oc3cc(OC)ncc3c2C(=O)c2cc(OC)c(OC)c(OC)c2)cc1` [Example 24, 6-methoxy-2-(4-methoxyphenyl)-3-(3,4,5-trimethoxybenzoyl)furo[3,2-c]pyridine], the IC50 in assay [2] was less than 4000 nM; in assay [1] (Homo sapiens, HUVEC), 100 to 1000 nM.

Turning to `COc1ccc(-c2oc3nc(OC)cnc3c2C(=O)c2cc(OC)c(OC)c(OC)c2)cc1` [Example 25, 3-methoxy-6-(4-methoxyphenyl)-7-(3,4,5-trimethoxybenzoyl)furo[2,3-b]pyrazine], the half-inhibitory concentration (IC50) in assay [2] was less than 4000 nM; in assay [1] (Homo sapiens, HUVEC), 10 to 100 nM.

Consider `COc1ccc(-c2oc3[nH]c(=O)ccc3c2-c2cc(OC)c(OC)c(OC)c2)cc1` [Example 26, 2-(4-Methoxyphenyl)-3-(3,4,5-trimethoxyphenyl)furo[2,3-b]pyridin-6-one], for which the IC50 in assay [1] (Homo sapiens, HUVEC) is 100 to 1000 nM.

For the compound `COc1ccc(-c2oc3nc(OC)ncc3c2C(=O)c2cc(OC)c(OC)c(OC)c2)cc1` [Example 27], in assay [1] (Homo sapiens, HUVEC), the IC50 is 100 to 1000 nM.

For `COc1ccc(-c2oc3c(Br)c(OC)cnc3c2C(=O)c2cc(OC)c(OC)c(OC)c2)cc1` [Example 28, 7-Bromo-6-methoxy-2-(4-methoxyphenyl)-3-(3,4,5-trimethoxybenzoyl)-furo[3,2-b]pyridine], in assay [1] (Homo sapiens, HUVEC), the IC50 was in the range of 100 to 1000 nM.

Take `COc1cc(C(=O)c2c(-c3cnn(C)c3)oc3c(=O)c(OC)c[nH]c23)cc(OC)c1OC` [Example 30, 6-Methoxy-2-(1-methyl-1H-pyrazol-4-yl)-3-(3,4,5-trimethoxybenzoyl)-4H-furo[3,2-b]pyridin-7-one]: in assay [1] (Homo sapiens, HUVEC), the IC50 is greater than 1000 nM.

The record behind these values is patent US8466163B2 (Bionomics Limited, priority 2006, dated 2013).
